Values joined by “and” are separate entries in the source; they are usually repeats but may differ in a detail not shown here. Equal values may be shown once.
system: P. falciparum 3D7 growth, pLDH absorbance; test: blood-stage malaria parasite growth potency – strain 3D7, dose response (AID 2305)

SMILES | IC50
COc1cc(NC(=O)N2CCOC(CCN3CCC4(CCc5ccccc54)CC3)(c3ccc(Cl)c(Cl)c3)C2)cc(OC)c1OC (stereo not given) | 160 nM
COc1ccc(C(=O)N2CCC(CN3CCOC(c4ccccc4)(c4ccccc4)C3)CC2)cc1 | 170 nM
Cc1nnc(NC(=O)c2cn(-c3ccccc3)nc2-c2ccccc2C)o1 | 560 nM
C=CCOc1ccccc1CNCC(O)c1cccc(C(F)(F)F)c1 (stereo not given) | 840 nM
Cc1cc(C(F)(F)F)n2nc(C(=O)N(Cc3cncn3Cc3cccc(F)c3)CC3CC3)cc2n1 | 740 nM
O=C(NC1CC1)c1cnc(N2CCN(Cc3ccc(Cl)cc3)CC2)c(Cl)c1 | 850 nM
CS(=O)(=O)c1cccc(-c2ccc3oc(C(N)=O)c(NC(=O)c4cccs4)c3c2)c1 | 590 nM
CN1Cc2ccc(NS(=O)(=O)c3ccc(-c4ccoc4)cc3)cc2C1 | 160 nM
COCCN1CCC(C(=O)NCC(C)(C)c2nc(-c3ccc(Br)c(O)c3)c(-c3ccncc3)[nH]2)CC1 | 910 nM
Cc1cc(OCc2ccccc2)c(OCc2ccccc2)cc1C(O)CN(C)Cc1ccccc1 (stereo not given) | 810 nM
COc1ccc2nccc([C@@H](O)CN3CCC(NCc4cc5ccc(Cl)cc5[nH]4)CC3)c2c1 | 120 nM
NS(=O)(=O)NCCCN1CCN(c2ccccc2)CC1 | 980 nM
Cc1cc(OCC2CCCN(c3ncc(C(=O)NC4CC4)cc3Cl)C2)ccc1F (stereo not given) | 1490 nM
CCOc1cc(O)c(-c2nc(N)ncc2-c2ccc3c(c2)OCCO3)cc1CC | 730 nM
Cc1nc(-c2cccc(C(=O)Nc3cnc4ccccc4c3)c2)no1 | 1160 nM
O=S(=O)(NCCN1CCCC1)c1ccc(-c2cccc(CNCc3ccccc3)c2)s1 | 810 nM
CN(C)CCCOc1ccc(CN2CC[C@H](NC(=O)c3ccc(Cl)c(Cl)c3)C2)c2ccccc12 | 880 nM
CCOc1cccc(C(=O)Nc2cccc(CN3CCCN(Cc4cccc(O)c4)CC3)c2)c1 | 1090 nM
COc1cccc(Nc2nc(Nc3cccc(C#N)c3)cc(-c3ccncc3)n2)c1 | 760 nM
O=C(/C=C/c1ccc(Cl)c(Cl)c1)NC1CCN(Cc2ccc(O)cc2)CC1 | 690 nM
CCN1CCC(N(CCCCCCCCc2ccc(C(F)(F)F)cc2)C(=O)Cn2c(CCc3cccc(F)c3F)cc(=O)c3ccccc32)CC1 | 1200 nM
CN(C)C(=NCCCCCCN=C(NC(N)=NCc1ccc(Cl)c(Cl)c1)N(C)C)NC(N)=NCc1ccc(Cl)c(Cl)c1 | 300 nM
COc1ccc(CCc2ccc(-c3c(C)[nH]c(C)c(Cl)c3=O)cc2)cc1OC | 90 nM
Cc1cccc(-c2cc3cc(Nc4ccnc5cc(-c6nccs6)ccc45)ccc3[nH]2)c1 | 170 nM
Nc1nc(N)c2cc(NC(=O)c3ccc(Cl)c(Cl)c3)ccc2n1 | 150 nM

SMILES | IC50
COc1ccc2nc(C)cc(NN=Cc3ccc(Cl)cc3)c2c1 | 230 nM
C=CCc1cc(Cc2cnc(N)nc2N)c2ccc(C)nc2c1O | 1040 nM
O=C(/C=C/c1ccc(Cl)c(Cl)c1)NCCCCCN1CCC(c2c[nH]c3c(-c4ccccc4)cccc23)CC1 | 250 nM
NC(=NCCCCC1CCCCC1)c1cccc(C(N)=NCCCCC2CCCCC2)n1 | 390 nM
C[C@H](NC(=O)c1c(OC2CN(C(c3ccccc3)c3ccccc3)C2)c(-c2ccccc2)nc2ccccc12)C1CCCCC1 | 980 nM
Cc1ccc(C(=O)Nc2cccc(-c3ccc(N4CCN(C)CC4)nn3)c2)cc1[N+](=O)[O-] | 330 nM
Cc1nc(-c2cccc3c(NC(=O)Nc4ccc5nccc(N6CCN(C)CC6)c5c4)cccc23)no1 | 230 nM
CC(C)N1CCN(CCCNc2c3ccccc3nc3ccccc23)CC1 | 230 nM
c1ccc2c(NCCCCCCNc3ccnc4ccccc34)ccnc2c1 | 190 nM
CC(C)CN1CCCN(Cc2cccc(NC(=O)c3ccc(-c4ccccc4)cc3)c2)CC1 | 880 nM
Cc1noc(-c2cccs2)c1C(=O)NCCc1cccc(Cl)c1 | 460 nM
N#Cc1ccc(-c2ccc(C(=O)NCCCCN3CCC(c4cc(Br)c5c(c4O)CCCC5)CC3)cc2)cc1 | 150 nM
N#Cc1cncc(-c2nc3c(N4CCN(c5cnccn5)CC4)cccc3n2CCNCc2ccccc2)c1 | 910 nM
O=S(=O)(c1c(Cl)cccc1Cl)N1CCCCC(c2ccc(C(F)(F)F)cc2)=N1 | 130 nM
COc1cc(C(=O)N2COCC(CCCN3CCC(N4CCCC4)CC3)(c3ccc(Cl)c(Cl)c3)C2)cc(OC)c1OC (stereo not given) | 780 nM
CN(C)CCCNCc1ccc(-c2ccc(C(F)(F)F)cc2)cc1 | 870 nM
O=C(Nc1cc(C(F)(F)F)cc(C(F)(F)F)c1)c1cccc([N+](=O)[O-])c1 | 890 nM
COc1cccc2c(NCc3ccccc3)nc(NCCCN3CCCCC3C)nc12 (stereo not given) | 910 nM
CC(C)c1ccc(NC(=O)c2cccc(CN3CCCN(CC4CCCCC4)CC3)c2)cc1 | 710 nM
CN(c1cc(NC(=O)c2cccs2)ccn1)C1CCN(Cc2cccc(F)c2)CC1 | 680 nM
NCc1ccc(-c2ccccc2CNC2CCN(Cc3ccccc3)CC2)cc1 | 770 nM
CC(C)(CNCc1ccccc1)c1nc(-c2ccc(Cl)c(O)c2)c(-c2ccncc2)[nH]1 | 540 nM
N#Cc1ccc2c(c1)CN(CCC1CCC(NC(=O)/C=C/c3c[nH]c4ccccc34)CC1)CC2 (stereo not given) | 990 nM and 900 nM
Cc1cccc(Nc2nc(N[C@@H]3CCCNC3)nc3cc[nH]c(=O)c23)c1 | 680 nM
CN(C)CCNC(=O)NC1CN(c2ncnc3cc(-c4ccccc4)sc23)C1 | 580 nM

SMILES | IC50
CN(C)Cc1c(O)ccc2[nH]c(-c3ccc(F)cc3F)nc12 | 1300 nM
CC(C)COc1ccc(Cl)cc1Cc1ccc(-c2nc3cc(F)c(F)cc3[nH]2)o1 | 890 nM
COc1ccc(CC(=O)NC(CCCN2CCC3(CC2)OCc2ccccc23)c2ccc(Cl)c(Cl)c2)cc1 (stereo not given) | 1130 nM
O=C(/C=C/c1ccc(Cl)c(Cl)c1)NCCCCCN1CCC(NC(=O)Nc2ccc(Cl)cc2Cl)CC1 | 640 nM
Cc1cc(NCCC(=O)NCc2cccc(F)c2)nc(NCCc2ccc(F)cc2)n1 | 1750 nM
O=C(NCCNc1noc(-c2sccc2Br)n1)c1ccc(Cl)cc1 | 1170 nM
O=C(/C=C/c1ccc(Cl)cc1)NCCCCCN1CCCC(C(=O)Nc2ccc(Cl)c(Cl)c2)C1 (stereo not given) | 830 nM
Cc1cccc(C=NNc2cc(C)nc3ccc(F)cc23)n1 | 1000 nM
COc1cc2cc(Cc3cnc(N)nc3N)ccc2c(OC)c1OC | 240 nM
Cc1cccc2[nH]c(-c3ccc(-c4ccc(CNCC5CCCO5)cc4)cc3)nc12 (stereo not given) | 680 nM
N#Cc1ccc(N2CCN(Cc3ccc(-c4ccc(-c5nc6ccc(F)cc6[nH]5)s4)cc3)CC2)nc1 | 850 nM
O=C(N[C@@H](Cc1ccccc1)C(=O)NC1CCCc2ccccc21)c1ccc(O)c(-c2ccc(Cl)c(Cl)c2)c1 (stereo not given in full) | 210 nM
Oc1ccc(Nc2ccnc3cc(Cl)ccc23)cc1 | 740 nM
O=C(COc1ccc(C(=O)c2ccccc2)cc1)Nc1nccs1 | 890 nM
Cc1cc(CN2C(=O)C(c3ccccc3)(c3ccccc3)N=C2N)c(C(F)(F)F)o1 | 960 nM
COC(=O)C(Cc1ccccc1)NC(=O)NC1CCN(c2ccnc(Nc3ccc(F)cc3)n2)C1 (stereo not given) | 1090 nM
O=C(NCC(CCN1CCC(c2c[nH]c3ccccc23)CC1)c1ccccc1)Nc1ccc(Cl)c(Cl)c1 (stereo not given) | 830 nM
COc1cccc(C(=O)[C@H]2C[C@@H]2CN(C)CCC(O)c2ccc(Cl)c(Cl)c2)c1 (stereo not given in full) | 760 nM
COc1cc2nc(N3CCC(CNC(=O)c4ccc(-c5ccc(C(=O)N(C)C)cc5C)cc4)CC3)nc(N3CCN(C)CC3)c2cc1OC | 1230 nM
O=C(/C=C/c1ccc(Cl)c(Cl)c1)NC1CCN(Cc2cccc(O)c2)CC1 | 880 nM
COc1ccc(NC(=O)c2ccc(Br)c(C)c2)cc1N1CCN(CCCCc2ccccc2)CC1 | 820 nM
N#Cc1ccc(-c2ccc(OCC(O)CN3CCCN(Cc4cccc(O)c4Cl)CC3)cc2)cc1 (stereo not given) | 690 nM
CN(C)CCOc1cc(NC(=O)Nc2ccc(-c3ccncc3)c3ccccc23)ccc1I | 780 nM
CCCCCc1ccc(N2C(N)=NC(N)=NC2(C)C)cc1 | 130 nM
O=C(Cc1ccccn1)Nc1cccc(-c2cccc(-c3nc4ccc(C(F)(F)F)cc4[nH]3)c2)c1 | 610 nM

SMILES | IC50
CS(=O)(=O)Cc1ccc(Nc2nccc(N3CCCc4cc(NC(=O)Nc5cccc(C(F)(F)F)c5)ccc43)n2)cc1 | 150 nM
Cc1cc(C(=O)NCc2ccc(-c3c(C)noc3C)cc2)n(-c2ccc(Cl)cc2)n1 | 530 nM
COc1ccc(CCNCCCCNCCc2ccc(OC)c3ccccc23)c2ccccc12 | 450 nM
CC(=O)N(Cc1ccc(CC(C)NCCc2cccc(Cl)c2)cc1)Cc1ccc(CC(C)NCCc2cccc(Cl)c2)cc1 (stereo not given) | 780 nM
CC(ON1C(N)=NC(N)=NC1(C)C)c1ccccc1 (stereo not given) | 10 nM
Cc1cc(NN=CC=Cc2ccccc2)c2cc(F)ccc2n1 | 730 nM
Cc1ccc(S(=O)(=O)n2cc(-c3ccnc(N)c3)c3cc(Br)cnc32)cc1 | 900 nM
CCOc1ccc(-c2nonc2NC(=O)c2ccco2)cc1OCC | 750 nM
CC(=O)c1ccc(N2CCN(CCC3(c4ccc(Cl)c(Cl)c4)COCN(C(=O)c4ccccc4)C3)CC2)cc1 (stereo not given) | 920 nM
CCCC(C)Nc1nc(C)cc(NCCC(=O)Nc2ccccc2)n1 (stereo not given) | 960 nM
Cc1sc(C)c(C(F)(F)F)c1CNCCCNc1cc(=O)c2ccccc2[nH]1 | 1100 nM
O=C(NCCCCN1CCC(c2ccc(C(F)(F)F)cc2C(F)(F)F)CC1)c1ccc(NC(=O)c2ccc(Cl)cc2)cc1 | 610 nM
O=C1c2ccccc2CCC1CCN1CC=C(c2c[nH]c3ccccc23)CC1 (stereo not given) | 700 nM
COc1cc2c(cc1N1C[C@@H](C)N[C@@H](C)C1)N(C(=O)c1ccc(-c3ccc(-c4ncc[nH]4)cc3C)cc1)CC2 | 720 nM
C#CCNC(=O)c1ccc(-c2ccnc(Nc3cccc(CCCN4CCOCC4)c3)n2)s1 | 1000 nM
OC(COc1ccccc1-c1nc2ccccc2o1)CN1CCCN(CCc2ccccc2)CC1 (stereo not given) | 760 nM
O=C(/C=C/c1ccc(Cl)c(Cl)c1)NCCCCCN1CCC(NC(=O)c2ccc(F)cc2)CC1 | 710 nM
COc1ccc(CNCc2ccc(-c3cccc(-c4nc5ccc(F)cc5[nH]4)c3)cc2)cc1 | 200 nM
CC[C@H]1CN2CC[C@H]1C[C@H]2[C@H](O)c1cc(-c2ccc(C)cc2)nc2ccc(OC)cc12 | 110 nM
Fc1ccc2c(NN=Cc3ccccc3F)ccnc2c1 | 560 nM
Cc1ccc(CN2CCN(Cc3cccc(NC(=O)c4cccs4)c3)CC2)cc1C | 1030 nM
Cc1noc(C)c1-c1ccc2c(Nc3nccc4ccccc34)c(C(N)=O)cnc2c1 | 890 nM
CN(C)CCC(O)C=C(c1ccc(Cl)cc1)c1ccc(Cl)cc1 (stereo not given) | 950 nM
Cc1ccc(NC(=O)Nc2ccc(I)c(OCCN(C)C)c2)cc1Cl | 560 nM
Cc1ccc(CC(C)NCC(O)c2cccc(Br)c2)cc1 (stereo not given) | 800 nM

Reference: PubChem BioAssay AID2305 (GlaxoSmithKline (GSK), 2010)
